# Assay results published in PubChem BioAssay AID1745844 (Carcinogenic Potency Database (CPDB), 2022).
# Activity calls are given as the source filed them. No rule for the calls is given here.
# System: rodent lifetime carcinogenesis bioassay, tumor incidence TD50
# Assay: chronic cancer bioassays in animals – CPDB, compiled studies (AID 1745844)
smiles,measurement,setting,value
CCCCCCCC/C=C\CCCCCCCC(=O)O,carcinogen call,"rat, strain F344/DuCrj, females, in drinking water, site: any site (literature study), lesion: several types, types named in the paper, dosed 108 weeks, study length 108 weeks",negative (inactive)
same,carcinogen call,"rat, strain F344/DuCrj, females, in drinking water, site: liver, lesion: hyperplastic nodule, dosed 108 weeks, study length 108 weeks",negative (inactive)
same,carcinogen call,"rat, strain F344/DuCrj, males, in drinking water, site: any site (literature study), lesion: several types, types named in the paper, dosed 108 weeks, study length 108 weeks",negative (inactive)
same,TD50,"rat, strain F344/DuCrj, males, in drinking water, site: liver, lesion: hyperplastic nodule, dosed 108 weeks, study length 108 weeks",29100 mg/kg/day (inactive)
same,TD50,"rat, strain F344/DuCrj, males, in drinking water, site: liver, lesion: several types, types named in the paper, dosed 108 weeks, study length 108 weeks",39300 mg/kg/day (inactive)
same,TD50,"rat, strain F344/DuCrj, males, in drinking water, site: pancreas, lesion: insuloma, dosed 108 weeks, study length 108 weeks",12600 mg/kg/day (inactive)
same,TD50,"rat, strain F344/DuCrj, males, in drinking water, site: pancreas, lesion: several types, types named in the paper, dosed 108 weeks, study length 108 weeks",10100 mg/kg/day (inactive)
OCc1ccccc1,TD50,"mouse, strain B6C3F1, females, by gavage, site: any site (literature study), lesion: several types, types named in the paper, dosed 103 weeks, study length 104 weeks",57500 mg/kg/day (inactive)
same,TD50,"mouse, strain B6C3F1, females, by gavage, site: liver, lesion: hepatocellular adenoma + hepatocellular carcinoma + neoplastic nodule, dosed 103 weeks, study length 104 weeks",1040 mg/kg/day
same,TD50,"mouse, strain B6C3F1, males, by gavage, site: adrenal gland, lesion: cortical adenoma, dosed 103 weeks, study length 104 weeks",1620 mg/kg/day (inactive)
same,TD50,"mouse, strain B6C3F1, males, by gavage, site: liver, lesion: hepatocellular adenoma + hepatocellular carcinoma + neoplastic nodule, dosed 103 weeks, study length 104 weeks",588 mg/kg/day
same,TD50,"mouse, strain B6C3F1, males, by gavage, site: lung, lesion: alveolar/bronchiolar adenoma + alveolar/bronchiolar carcinoma, dosed 103 weeks, study length 104 weeks",546 mg/kg/day
same,TD50,"rat, strain Fischer 344, females, by gavage, site: any site (literature study), lesion: several types, types named in the paper, dosed 103 weeks, study length 104 weeks",885 mg/kg/day (inactive)
same,TD50,"rat, strain Fischer 344, males, by gavage, site: mammary gland, lesion: adenoma, NOS + fibroadenoma, dosed 103 weeks, study length 104 weeks",1140 mg/kg/day (inactive)
same,TD50,"rat, strain Fischer 344, males, by gavage, site: mammary gland, lesion: fibroadenoma, dosed 103 weeks, study length 104 weeks",1380 mg/kg/day
NC(=O)N/N=C/c1ccco1,TD50,"rat, strain Sprague-Dawley, females, in feed, site: mammary gland, lesion: fibroadenoma, dosed 46 weeks, study length 66 weeks",48.8 mg/kg/day (inactive)
O=C(O)CCCC/C=C(\c1ccccc1)c1cccnc1,carcinogen call,"mouse, strain Charles River CD1, females, in feed, site: any site (literature study), lesion: several types, types named in the paper, dosed 104 weeks, study length 104 weeks",negative (inactive)
same,TD50,"mouse, strain Charles River CD1, females, in feed, site: liver, lesion: hepatocellular adenoma, dosed 104 weeks, study length 104 weeks",4930 mg/kg/day (inactive)
same,carcinogen call,"mouse, strain Charles River CD1, females, in feed, site: lung, lesion: alveolar/bronchiolar adenoma, dosed 104 weeks, study length 104 weeks",negative (inactive)
same,carcinogen call,"mouse, strain Charles River CD1, females, in feed, site: lung, lesion: alveolar/bronchiolar carcinoma, dosed 104 weeks, study length 104 weeks",negative (inactive)
same,TD50,"mouse, strain Charles River CD1, males, in feed, site: any site (literature study), lesion: several types, types named in the paper, dosed 104 weeks, study length 104 weeks",1090 mg/kg/day (inactive)
same,TD50,"mouse, strain Charles River CD1, males, in feed, site: liver, lesion: hepatocellular adenoma, dosed 104 weeks, study length 104 weeks",2050 mg/kg/day (inactive)
same,TD50,"mouse, strain Charles River CD1, males, in feed, site: liver, lesion: hepatocellular carcinoma, dosed 104 weeks, study length 104 weeks",10200 mg/kg/day (inactive)
same,TD50,"mouse, strain Charles River CD1, males, in feed, site: lung, lesion: alveolar/bronchiolar adenoma, dosed 104 weeks, study length 104 weeks",1220 mg/kg/day (inactive)
same,carcinogen call,"mouse, strain Charles River CD1, males, in feed, site: lung, lesion: alveolar/bronchiolar carcinoma, dosed 104 weeks, study length 104 weeks",negative (inactive)
same,carcinogen call,"rat, strain Charles River CD (Sprague-Dawley), females, in feed, site: liver, lesion: hepatocellular adenoma, dosed 104 weeks, study length 104 weeks",negative (inactive)
same,carcinogen call,"rat, strain Charles River CD (Sprague-Dawley), males, in feed, site: liver, lesion: hepatocellular adenoma, dosed 104 weeks, study length 104 weeks",negative (inactive)
Cc1ccc(S(=O)(=O)NC(=O)NN2CCCCCC2)cc1,carcinogen call,"mouse, strain B6C3F1, females, in feed, site: any site (literature study), lesion: several types, types named in the paper, dosed 103 weeks, study length 104 weeks",negative (inactive)
same,carcinogen call,"mouse, strain B6C3F1, males, in feed, site: any site (literature study), lesion: several types, types named in the paper, dosed 103 weeks, study length 104 weeks",negative (inactive)
same,TD50,"mouse, strain B6C3F1, males, in feed, site: lung, lesion: alveolar/bronchiolar adenoma + alveolar/bronchiolar carcinoma, dosed 103 weeks, study length 104 weeks",24600 mg/kg/day
same,carcinogen call,"rat, strain Fischer 344, females, in feed, site: any site (literature study), lesion: several types, types named in the paper, dosed 103 weeks, study length 105 weeks",negative (inactive)
same,carcinogen call,"rat, strain Fischer 344, males, in feed, site: any site (literature study), lesion: several types, types named in the paper, dosed 103 weeks, study length 104 weeks",negative (inactive)
Nc1cc(Cl)c(N)c(Cl)c1,TD50,"mouse, strain B6C3F1, females, in feed, site: any site (literature study), lesion: several types, types named in the paper, dosed 103 weeks, study length 111 weeks",801 mg/kg/day
same,TD50,"mouse, strain B6C3F1, females, in feed, site: liver, lesion: hepatocellular adenoma + hepatocellular carcinoma + neoplastic nodule, dosed 103 weeks, study length 111 weeks",883 mg/kg/day
same,TD50,"mouse, strain B6C3F1, females, in feed, site: liver, lesion: hepatocellular adenoma + hepatocellular carcinoma, dosed 103 weeks, study length 111 weeks",883 mg/kg/day
same,TD50,"mouse, strain B6C3F1, females, in feed, site: liver, lesion: hepatocellular carcinoma, dosed 103 weeks, study length 111 weeks",2030 mg/kg/day
same,TD50,"mouse, strain B6C3F1, females, in feed, site: lung, lesion: alveolar/bronchiolar adenoma + alveolar/bronchiolar carcinoma, dosed 103 weeks, study length 111 weeks",42100 mg/kg/day
same,TD50,"mouse, strain B6C3F1, males, in feed, site: any site (literature study), lesion: several types, types named in the paper, dosed 103 weeks, study length 111 weeks",1730 mg/kg/day
same,TD50,"mouse, strain B6C3F1, males, in feed, site: liver, lesion: hepatocellular adenoma + hepatocellular carcinoma + neoplastic nodule, dosed 103 weeks, study length 111 weeks",737 mg/kg/day
same,TD50,"mouse, strain B6C3F1, males, in feed, site: liver, lesion: hepatocellular adenoma + hepatocellular carcinoma, dosed 103 weeks, study length 111 weeks",737 mg/kg/day
same,TD50,"mouse, strain B6C3F1, males, in feed, site: liver, lesion: hepatocellular adenoma, dosed 103 weeks, study length 111 weeks",933 mg/kg/day
same,carcinogen call,"rat, strain Fischer 344, females, in feed, site: any site (literature study), lesion: several types, types named in the paper, dosed 103 weeks, study length 111 weeks",negative (inactive)
same,TD50,"rat, strain Fischer 344, females, in feed, site: liver, lesion: hepatocellular adenoma + hepatocellular carcinoma + neoplastic nodule, dosed 103 weeks, study length 111 weeks",2960 mg/kg/day
same,TD50,"rat, strain Fischer 344, males, in feed, site: any site (literature study), lesion: several types, types named in the paper, dosed 103 weeks, study length 111 weeks",914 mg/kg/day (inactive)
same,TD50,"rat, strain Fischer 344, males, in feed, site: liver, lesion: hepatocellular adenoma + hepatocellular carcinoma + neoplastic nodule, dosed 103 weeks, study length 111 weeks",340 mg/kg/day
O=C1OC(O)C(C(Cl)Cl)=C1Cl (stereo not given),TD50,"rat, strain Wistar, females, in drinking water, site: adrenal gland, lesion: cortical adenoma, dosed 104 weeks, study length 104 weeks",10.6 mg/kg/day
same,TD50,"rat, strain Wistar, females, in drinking water, site: all sites, lesion: lymphoma and leukemia, combined, dosed 104 weeks, study length 104 weeks",41.5 mg/kg/day
same,TD50,"rat, strain Wistar, females, in drinking water, site: liver, lesion: cholangioadenoma/carcinoma, dosed 104 weeks, study length 104 weeks",2.73 mg/kg/day
same,TD50,"rat, strain Wistar, females, in drinking water, site: liver, lesion: cholangiocarcinoma, dosed 104 weeks, study length 104 weeks",122 mg/kg/day
same,TD50,"rat, strain Wistar, females, in drinking water, site: liver, lesion: cholangioma, dosed 104 weeks, study length 104 weeks",2.73 mg/kg/day
same,TD50,"rat, strain Wistar, females, in drinking water, site: liver, lesion: hepatocellular adenoma, dosed 104 weeks, study length 104 weeks",16 mg/kg/day
same,TD50,"rat, strain Wistar, females, in drinking water, site: liver, lesion: hepatocellular tumor, dosed 104 weeks, study length 104 weeks",14.9 mg/kg/day
same,TD50,"rat, strain Wistar, females, in drinking water, site: mammary gland, lesion: adenocarcinoma, dosed 104 weeks, study length 104 weeks",14 mg/kg/day
same,TD50,"rat, strain Wistar, females, in drinking water, site: mammary gland, lesion: fibroadenoma, dosed 104 weeks, study length 104 weeks",5.13 mg/kg/day
same,TD50,"rat, strain Wistar, females, in drinking water, site: mammary gland, lesion: several types, types named in the paper, dosed 104 weeks, study length 104 weeks",13 mg/kg/day
same,TD50,"rat, strain Wistar, females, in drinking water, site: thyroid gland, lesion: follicular-cell adenoma, dosed 104 weeks, study length 104 weeks",0.645 mg/kg/day
same,TD50,"rat, strain Wistar, females, in drinking water, site: thyroid gland, lesion: follicular-cell carcinoma, dosed 104 weeks, study length 104 weeks",5.2 mg/kg/day
same,TD50,"rat, strain Wistar, females, in drinking water, site: thyroid gland, lesion: several types, types named in the paper, dosed 104 weeks, study length 104 weeks",0.741 mg/kg/day
same,TD50,"rat, strain Wistar, males, in drinking water, site: adrenal gland, lesion: cortical adenoma, dosed 104 weeks, study length 104 weeks",9.68 mg/kg/day
same,TD50,"rat, strain Wistar, males, in drinking water, site: all sites, lesion: lymphoma and leukemia, combined, dosed 104 weeks, study length 104 weeks",53.1 mg/kg/day
same,TD50,"rat, strain Wistar, males, in drinking water, site: liver, lesion: cholangioma, dosed 104 weeks, study length 104 weeks",31.4 mg/kg/day
same,TD50,"rat, strain Wistar, males, in drinking water, site: liver, lesion: hepatocellular adenoma, dosed 104 weeks, study length 104 weeks",24.4 mg/kg/day
same,TD50,"rat, strain Wistar, males, in drinking water, site: liver, lesion: hepatocellular carcinoma, dosed 104 weeks, study length 104 weeks",53.4 mg/kg/day
same,TD50,"rat, strain Wistar, males, in drinking water, site: liver, lesion: hepatocellular tumor, dosed 104 weeks, study length 104 weeks",17.7 mg/kg/day
same,TD50,"rat, strain Wistar, males, in drinking water, site: lung, lesion: alveolar/bronchiolar adenoma, dosed 104 weeks, study length 104 weeks",23.4 mg/kg/day
same,TD50,"rat, strain Wistar, males, in drinking water, site: pancreatic islets, lesion: islet-cell adenoma, dosed 104 weeks, study length 104 weeks",16 mg/kg/day
same,TD50,"rat, strain Wistar, males, in drinking water, site: pancreatic islets, lesion: several types, types named in the paper, dosed 104 weeks, study length 104 weeks",16.6 mg/kg/day
same,TD50,"rat, strain Wistar, males, in drinking water, site: thyroid gland, lesion: follicular-cell adenoma, dosed 104 weeks, study length 104 weeks",0.532 mg/kg/day
same,TD50,"rat, strain Wistar, males, in drinking water, site: thyroid gland, lesion: follicular-cell carcinoma, dosed 104 weeks, study length 104 weeks",3.25 mg/kg/day
same,TD50,"rat, strain Wistar, males, in drinking water, site: thyroid gland, lesion: several types, types named in the paper, dosed 104 weeks, study length 104 weeks",0.678 mg/kg/day
